Source: US7244586B2, “DNA molecules encoding ligand-gated ion channels from Drosophila melanogaster” (Merck & Co., Inc., priority 2000, dated 2007)

Test system: DmLGIC AC15
Details: AC15 clone expressed in Xenopus oocyte
Protocol: Full length cDNA clones corresponding to the selected RT-PCR sequences were used as template for synthesis of in vitro transcribed RNA (Ambion Inc.). The capped cRNA transcripts are synthesized using appropriate oligonucleotide primers and the mMESSAGE mMACHINE in vitro RNA transcription kit from Ambion. Xenopus laevis oocytes were prepared and injected using standard methods as described (Arena et al., 1991, Mol. Pharmacol. 40: 368–374; Arena et al, 1992, Mol. Brain Res. 15: 339–348). Adult female Xenopus laevis were anesthetized with 0.17% tricaine methanesulfonate and the ovaries were surgically removed and placed in a dish consisting of (mM): NaCl 82.5, KCl 2, MgCl2 1, CaCl2 1.8, HEPES 5, adjusted to pH 7.5 with NaOH (OR-2). Ovarian lobes were broken open, rinsed several times, and gently shaken in OR-2 containing 0.2% collagenase (Sigma, Type 1A) for 2–5 hours. When approximately 50% of the follicular layers were removed, Stage V and VI oocytes were selected and placed in media consisting of (mM): NaCl 86, KCl 2, MgCl2 1, CaCl2 1.8, HEPES 5, Na pyruvate 2.5, theophylline 0.5, gentamicin 0.1 adjusted to pH 7.5 with NaOH (ND-96) for 24–48 hours before injection. For most experiments, oocytes were injected with 10 ng of cRNA in 50 nl of RNase free water. Control oocytes were injected with 50 nl of water. […]

NCCc1c[nH]cn1 [histamine]
response of functional single channel protein to addition of histamine: responds to the addition of histamine
